Source: patent US20020055174A1, “Complex for transferring an anionic substance of interest into a cell” (priority 2000, published 2002)
Entries after “also recorded” stand apart in the source; their conditions may differ. Ends that are not written are not given here.

Columns and labels:
HeLa cells [1] = test: Transfection in vitro, luciferase plasmid pTG11236; assay type: cell-based
Procedure: Cells were plated on 24 well plates at a density of 4×10^4 (293-EBNA ) or 7×10^4 (HeLa, Renca) cells/well in DMEM supplemented with 10% FCS. The next day, the medium was replaced by 200 μl serum-free DMEM and plasmid (pTG11056 or pTG11236)/peptide complexes or plasmid/peptide/lipid complexes were prepared in 30 μl 0.9% NaCl or 5% glucose. After 20 min at room temperature these complexes were added to the cells which were then incubated for 2-3 h at 37° C. and 5% CO2 before 1 ml serum-containing DMEM was added. Approximately 20-hours later, cells were lysed by addition of 100 μl 1× Promega lysis buffer, 20 μl of the lysates were analysed for luciferase activity. Proteins were quantified with the bicinchonic acid (BCA) colorimetric method (Smith, Anal. Biochem. 150 (1985), 76-85).
In another experiment, 7×10^4 HeLa cells, seeded on 24-well plates the day before transfection, were transfected with 0.5 μg or 0.05 μg pTG11236, complexed with Lipofectin or ppTG1. The plasmid/peptide complexes were prepared in 30 μl of 5% glucose or 0.9% NaCl and added to the cells (200 μl serum-free medium) after 20 min at room temperature. Serum-containing medium was added after 3 h, the cells were harvested the next day.
A comparison of the effect on transfection efficiency of ppTG1 and JTS-1-K13 was carried out in HeLa cells. Complexes of 0.5 μg or 0.05 μg pTG11236 were formed with increasing amounts the respective peptide.
(§1) A comparison of ppTG1 and KALA was carried out in HeLa and CHO cells. 5×10^4 cells were seeded on 24 well plates. The next day, cells were transfected with 500 ng and 50 ng of pTG11236, complexed with ppTG1 or KALA in 30 μl 0.9% NaCl. The charge ratio +/− varied from 1, 2, 3, 4, 7 to 10. Cells were harvested 20 h after transfection and lysis was obtained in 100 μl Promega lysis buffer. Luciferase activity and total protein concentrations in 20 μl were determined.
HeLa cells were seeded at a density of 6×10^4 cells on 24 well plates. The next day, cells were incubated with 200 μl serum-free medium, 30 μl of plasmid (50 ng)/peptide/lipid mixtures were added and incubated for 3 h at 37° C. in 5% CO2. 1 ml of DMEM+10% FCS was then added. The next day, the medium was removed and cells were washed with 500 μl of PBS and subsequently treated with 100 μl of Promega lysis buffer. Plates were stored at −80° C. until luciferase activity was measured of 20 μl of the cell lysate. The protein assay was performed using the Pierce BCA kit.
JTS1 was dissolved to 1 mg/ml in 1 mM NaOH and mixed with DNA diluted in 5% glucose. ppTG1 was then added to this solution. The pcTG90/DOPE ppTG1 mixtures were prepared as described in Example 6. Transfection assays were performed on HeLa cells with 50 ng of plasmid as described in Example 6.
The series of ppTG1 derivatives listed in Material and Methods were tested for their gene transfer efficiencies in Hela cells. 6×10^4 cells were transfected with 50 ng pTG11236 complexed with increasing amounts of peptide. Luciferase activity was analyzed day 1 after transfection. The results are shown in FIG. 10B (ppTG20, ppTG21), FIG. 10C(ppTG25, ppTG26, ppTG27), FIG. 10D (ppTG28 to ppTG33), FIG. 10E (PEG-ppTG1 and PEG-ppTG20), FIG. 10F (ppTG22 to ppTG24) and FIG. 10G (ppTG20-D).

[2] = Liposome leakage assay, POPC/cholesterol 3:2 liposomes; details: for liposome leakage activity, in words: POPC/chol 3:2 liposomes
Procedure: Increasing amounts of the indicated peptides were incubated with POPC/Cholesterol (3:2 mol/mol) liposomes for 30 min at RT. Emitted fluorescence was plotted against peptide concentration. […] B) Liposome leakage activity with complexes of ppTG1 and the plasmid pTG11236 at pH7.
1-Palmitoyl-2-Oleoyl-phosphatidylcholine (POPC) liposomes were prepared by the repeated freeze-thaw method followed by extrusion (Olson et al., 1979, Biochim. Biophys. Acta 557, 19-23). Ten μ-moles of POPC in chloroform were placed in a glass tube and solvent was evaporated under reduced pressure using a Labconco Rapidvap vortex evaporator (Uniequip, Germany). The resulting lipid film was hydrated with 0.5 ml of an aqueous solution of calcein (lOOmM calcein, 3.75 eq. NaOH, 50mM NaCl). The lipid suspension was sonicated until the solution became clear using a sonic water bath (Bransonic 221, Branson Ultrasonics Corp., USA). Five cycles of freeze-thaw were performed before liposomes were extruded by 4 passages through 200 nm pore diameter polycarbonate membranes (Nuclepore, Costar, Mass., USA). Free calcein was removed from calcein encapsulated into liposomes by gel exclusion chromatography using a Sephadex G-50 column (3 cm×14 cm) and a 200 mM NaCl, 25 mM HEPES, pH 7.3 solution as the elution buffer. The final lipid concentration was determined by a phosphorus assay (Bartlett, 1959, J. Biol. Chem. 234, 466-469). Liposomes' diameter was determined by dynamic laser light scattering using a Coulter N4 Plus submicron particle sizer (Coultronics France S. A, France). Measurements were performed within a 3 nm-10000 nm size window with a fixed 90° scattered light angle.
The liposome leakage assay was carried out as described in Planck et al. (1994, J. Biol. Chem. 269, 12918-12924). The liposome stock solution was diluted to a lipid concentration of 45 μM in 1.8× assay buffer (360 mM NaCl, 36 mM sodium citrate, pH 5 and pH 7). A 1:5 serial dilution of the tested peptide was carried out in a 96-well microtiter plate by transferring 20 μl of the peptide solution from one well to the next well and diluting with 80 μl H2O. 100 μl of the liposome solution was added in each well (final lipid concentration: 25 μM) and, after 30 min at room temperature, was assayed for fluorescence at 535 nm (excitation: 485 nm) on a microtiter plate fluorescence spectrometer (WALLAC, 1420 multilabel counter Victor). These conditions are appropriate to analyze fluorescein and as close as possible to the appropriate excitation/ emission profile of calcein (495 nm /515 nm). The value for 100% leakage was obtained by addition of 1 μl of a 10% Triton X-100 solution. Leakage activity was plotted against peptide concentration.
Liposome leakage activities were analyzed on liposomes consisting of POPC and cholesterol at a molar ratio of 3:2 (mol/mol).
Complexes of ppTG1 with plasmid DNA pTG11236 were tested for liposome leakage activity on POPC/chol 3:2 liposomes.
The series of ppTG1 derivatives as they are listed in Materials and Methods was tested for liposome leakage activity on POPC/chol 3:2 liposomes at pH7.

CHO cells = test: Transfection in vitro, luciferase plasmid pTG11236; assay type: cell-based
Procedure: as §1

HeLa cells [3] = test: Transfection in the presence of Bafilomycin A; assay type: cell-based; details: 175 nM Bafilomycin A, 150 ng pTG11236
Procedure: Transfection in the presence of Bafilomycin A: 6×10^4 HeLa cells were plated on 24 well plates. Cells were treated with 175 nM Bafilomycin A 30 min before and throughout the transfection (1 h incubation of cells with transfection mix in the absence of serum).
Bafilomycin A is a specific inhibitor of the vacuolar proton pump. Treatment with Bafilomycin inhibits the acidification of late endosomes. HeLa cells were treated with Bafilomycin A (175 nM) 30 min before and throughout the transfection (1 h incubation with transfection complexes in the absence of serum). 6×10^4 cells were transfected with 150 ng pTG11236 using PEI or ppTG1. The luciferase assay was performed 1 day after transfection.

GLFKALLKLLKSLWKLLLKA
luciferase activities (HeLa cells [1]; 0.05 μg pTG11236, complexes in 0.9% NaCl): higher luciferase activities than observed for Lipofectin formulations
luciferase activities (HeLa cells [1]; 0.5 μg or 0.05 μg pTG11236 with 1.17 μg or 0.117 μg ppTG1, charge ratio 1.8): comparable luciferase activities as observed for DNA formulated with Lipofectin
more efficient than the complex comprising KALA, best case (HeLa cells [1]; HeLa): 3000 fold
liposome leakage activity, in words ([2]; pH5): could efficiently liberate calcein
liposome leakage activity, in words ([2]; pH7): could efficiently liberate calcein
liposome leakage of peptide/plasmid complexes ([2]; complexed with pTG11236, P/N 5 or 10, pH7): comparable to free ppTG1
liposome leakage of peptide/plasmid complexes ([2]; complexed with pTG11236, P/N of 1 or 0.8, pH7): slightly reduced
destabilization of POPC/Chol liposomes ([2]; peptide alone or complexed with plasmid DNA, summary): destabilizes efficiently
more efficient than the complex comprising KALA, best case (CHO cells): 2500 fold
more efficient in gene transfer than KALA (CHO cells; 50 ng pTG11236, optimum charge ratios): 68 fold
more efficient in gene transfer than KALA (CHO cells; 500 ng pTG11236, optimum charge ratios): 9 fold
effect of Bafilomycin A on transfection efficiency (HeLa cells [3]): not diminished; also recorded: did not influence the transfection efficiency
